Experiments:
[1] = system: platelets and red blood cells, Lymphocyte-like Jurkat cells, H9C2 and U937 cells; experiment: Anti-apoptotic effect of Xe-gas on a variety of biological cells; format: cell-based, human
Description: (§1) FIGS. 7A-D. Xe-treatment prevents apoptosis in variety of cells. A. Viability of lymphocyte-like Jurkat cell after 1 day storage. […] C. Viability of monocyte-like U-937 cells after 1 day storage. D. Viability of monocyte-like U-937 cells after 14 days storage.
(§2) It is known that Xe treatment protects neurons from apoptosis by reducing intracellular calcium, protecting mitochondrial membranes, and attenuating cell damage caused by reactive oxygen species (ROS)^28,29.

[2] = system: U-937 cells; experiment: Apoptosis in stored U-937 cells; format: cell-based, human; settings: xenon vs no gas
Description: as §1, §2

[3] = system: FCRLS+ microglia in APP/PS1 mice; experiment: RNAseq of FCRLS+ microglia from Xe-treated APP/PS1 mice; format: in vivo, mouse
Description: Based on recent findings that danger signals (dead neurons, neuritic axons and Ab peptides) alter functional phenotype of microglia from the homeostatic (M0) to neurodegenerative (MGnD) phenotype in AD, we hypothesized that Xe-gas treatment has a protective immunomodulatory role to restore homeostatic ‘sensome’ microglial functions in neurodegenerative diseases. To address whether Xe-treatment will restore functional microglia and suppress AD-like pathology in APP-PS1^30 mice, we started treatment with Xe at 2 months of age (at the onset of amyloid deposition—early stage) for 8 weeks (once a week for 40 minutes). Of note, these mice start to develop plaques at 6 weeks of age with saturation around 8 months of age. To treat mice with xenon gas we constructed a special chamber which can control supply of Xe and atmospheric gas (FIG. 3A). The closed-circuit system pumps recirculated gas through soda-lime to absorb CO2. CO2 and O2 concentrations were continuously monitored. The gas mixture was premixed in the outside container with excessive pressure. That lead to approximately 70% Xe and 20% 02 in the chamber. When 02 concentration reduced, additional gas mixture was supplied from the mixing container. The system was optimized to treat simultaneously up to 6 mice. Two types of mice were used: APP/PS1 mice and Wild Type mice as a control. The groups contained both males and females who were housed and treated separately. In each group we subjected portion of the mice to Xe treatment, and another portion was used as control by treatment with atmospheric air (FIG. 3B). We isolated FCRLS^+ microglia by FACS and performed RNAseq analysis.

[4] = system: dN-phagocytic microglia (MG-dNΦ); experiment: Acute neurodegeneration mouse model (dead neurons injection), RNA-Sequencing of microglia; format: in vivo
Protocol: We developed a new acute neurodegeneration mouse model to induce neurodegenerative MGnD-microglia^36. In brief, primary neurons (d7-d10) were typically cultured one week after initiation of culture. Neurons were removed from the surface of the plate by multiple washed with PBS. The neurons were then incubated under UV light (302 nm) at an intensity of 6315 W for 15 minutes to induce apoptosis. After this step the neurons were kept on ice. The cells were collected, spun down via centrifugation, and resuspended in 1 ml PBS. Next they were stained with the labeling dye (Alexa405 NHS Ester, Invitrogen, A3000) for 15 min at 37° C., protected from light. Neurons were then washed, spun and resuspended. Number of apoptotic cells was determined using a trypan blue stain and a cellometer. Neurons were resuspended at a density of 50,000 cells per μl.
These apoptotic dead neurons (dN) injected into the cortex and hippocampus of naïve mice induced the recruitment of P2ry12^+ microglia towards the site of injection. P2ry12^+ microglia changed morphology from an M0-homeostatic non-phagocytic (MG-nΦ) phenotype to an amoeboid-phagocytic (MG-dNΦ) phenotype at the vicinity of the injection site. Induction of MGnD microglia was not detected in PBS-injected control brains. […] Trem2 expression has been shown previously, including by our laboratory and others, to have beneficial effect on microglia recruitment towards Aβ-plaques^61-63, associated with restriction of AD^64. Moreover, TREM2 has been recently identified as a receptor for Aβ^65. […] This provides evidence that Xe-gas treatment has a protective immunomodulatory role to induce microglia protective functions to treat AD.

[5] = system: 6E10+ Abeta plaques and Clec7a+ MGnD microglia in APP/PS1 mice; experiment: Immunostaining of Ab load (6E10) and Clec7a+ MGnD microglia in cortex of APP/PS1 mice; format: in vivo, mouse
Protocol: APP-PS1 and WT mice were sacrificed and perfused with Hanks' Balanced Salt solution (HBSS). The mouse brains were separated, and the right hemispheres fixed in 4% PFA. After 24 hours the hemispheres were then transferred to a 30% sucrose solution for 48 hours. Brains were later frozen in Tissue-TeK O.C.T. and stored at −80 until ready to be cut. […] sagittal brain sections were cut with a cryostat and kept free floating in cryoprotectant solution. On the first day of staining, free floating brain sections were washed twice with phosphate buffered saline (PBS) and then incubated for one hour in blocking buffer (PBS, 0.1% Triton, 1% Bovine Serum Albumin, 10% Normal Horse Serum). Afterwards, the sections were incubated with primary antibody [Mouse-anti-Abeta Ab (1:1000, Biolegend, 6E10) and Rat-anti-Clec7a (1:300, Invivogen, mabg-mdect)] in pre-blocking buffer (PBS, 0.1% Triton, 1% Bovine Serum Albumin, 5% Normal Horse Serum) on a shaker overnight at 4° C. The following day, the sections were washed three times with PBS. Secondary antibodies (Donkey-anti-mouse-Cy3 (1:800, JIR, 715-165-150) and Goat-anti-Rat-647 (1:800, Invitrogen, A-21247)) in pre-blocking buffer were added to the sections for 1 hour at room temperature. After washing the sections 3 times with PBS, they were moved onto glass slides and covered with a glass coverslip and DAPI. Then images were taken by Leica DMi8 microscope. 4-6 images of prefrontal cortex with 10× magnification were taken per brain section (3 brain sections were stained per mouse, n=3-5).
For quantification of MGnD and Ab load, acquired images were imported to Fiji software (ImageJ). Then the data channels were separated. Gaussian filtering was used to remove noise. Next, the MGnD and plaques were shown using automatic thresholding methods in Fiji (with “Triangle” thresholding setting for MGnD and “Otsu” for Ab load 6E10). Finally, the percentage of the MGnD and Ab plaques over the cortical area was calculated and averaged, indicating the distribution of MGnD and Ab plaques in the prefrontal cortex.

[6] = system: Apoe in CD68+ phagosomes in APP/PS1 mice; experiment: Apoe engulfed in CD68+ phagosomes in APP/PS1 mice; format: in vivo, mouse
Protocol: APP-PS1 and WT mice were exposed to Xenon vs. normal air in vivo for 8 weeks. After that, the mice were sacrificed and perfused with Hanks' Balanced Salt solution (HBSS). The mouse brain was separated, and the right hemisphere was fixed in 4% PFA. After 24 hours the hemisphere was then transferred to a 30% sucrose solution for 48 hours. Brains were later frozen in Tissue-TeK O.C.T. and stored at −80 until ready to be cut. […] sagittal brain sections were cut with a cryostat and kept free floating in cryoprotectant solution. On the first day of staining, free floating brain sections were washed twice with phosphate buffered saline (PBS) and then incubated for one hour in blocking buffer (PBS, 0.1% Triton, 1% Bovine Serum Albumin, 10% Normal Horse Serum). Afterwards, the sections were incubated with primary antibody [Mouse-anti-Apoe (1:1000) and Rat-anti-CD68 (1:200)] in pre-blocking buffer (PBS, 0.1% Triton, 1% Bovine Serum Albumin, 5% Normal Horse Serum) on a shaker overnight at 4° C. The following day, the sections were washed three times with PBS. […] For quantification of the percentage of Apoe engulfed in CD68^+ phagosomes, acquired images were imported to Fiji software (ImageJ). […] The overlap of the staining/CD68+ staining was quantified in both groups. […]

[7] = system: EAE in C57BL6 animals; experiment: Experimental autoimmune encephalomyelitis (EAE) model; format: in vivo, mouse
Protocol: FIGS. 9A-E. Xenon treatments delayed EAE symptoms. A. Scheme representative of experimental design used. C57BL6 animals were immunized with 150 ug of MOG diluted v/v in CFA followed by two doses of B. Pertussis toxin (200 ng) applied during immunization and 48 hours later. The treatment with xenon consisted of a 40 minutes exposure twice a week starting on day 0. After clinical evaluation the animals were euthanized at the peak of the disease and the frequency of inflammatory cells evaluated by flow cytometry and IHC. B. Score curve from clinical signs. C. Evaluation of microglia cells from spinal cord by flow cytometry. Gate based on population CD45+, CD11b+, Ly6C−, Clec12a−. D. T Helper cells evaluation by flow cytometry. E. Immunofluorescence of spinal cord from animals on day 17th. At top the control animals and at the bottom the animals treated with Xenon. The tissue was stained for Tmem119, Clec7a and MBP, quantification measured by the Fiji ImageJ software. Statistical analysis: T-test. In order to evaluate the effects of Xenon as a possible candidate for Multiple Sclerosis (MS) treatment, we development a new protocol of exposition. We used the experimental autoimmune encephalomyelitis (EAE) model that mimics part of the mechanisms presents in MS. The induction of this model is due to the combination of the oligodendrocyte myelin (MOG) diluted in complete Freund's adjuvant (CFA) to break immunological tolerance and initiate the development of autoimmunity in these animals. In association we give two 200 ng doses of Bordetella Pertussis toxin that helps in increasing the permeability of the blood-brain barrier allowing the entry of immune cells to the spinal cord. The treatment with xenon was divided into 5 exposures of 40 minutes divided twice a week in the concentration of 3 PSI of xenon with 1 PSI of oxygen with the oxygen and CO2 concentration constantly measured. This treatment took place from day 0 to day 15 after immunization, with the animals' euthanasia on day 17 (See FIG. 9A). The clinical evaluation started on day 8 with the clinical signs being classified into: 0 no disease, 1—limp tail, 2—weak/partially paralyzed hind legs, 3—completely paralyzed hind legs, 4—complete hind and partial front leg paralysis, 5—complete paralysis/death.

[8] = system: cortical neurons and basal forebrain cholinergic neurons; settings: mild excitotoxic stress by continued exposure to PDC; cited from earlier work
[9] = Xe-gas for one hour immediately after dead neurons injection

## [Xe] [Xenon]
[1]
  anti-apoptotic effect: profound anti-apoptotic effect
[2]
  apoptosis in stored U-937 cells: inhibited apoptosis
[3]
  cytokines induced in MGnD-microglia associated with Aβ-plaques, such as Spp1, Apoe, and Igf1: suppresses
[3]; Xe once a week for 40 minutes for 8 weeks
  Bhlhe40 in microglia: significantly reduced
[3]; Xe once a week for 40 minutes for 8 weeks, approx. 70% Xe and 20% O2
  expression of inflammatory genes including App, Lpl, IIlb, Spp1 and Apoe in microglia: suppressed
[4]; [9]
  Trem2 expression in microglia: significantly induced
  expression of homeostatic genes such as Siglech, Cst3, Fcgrt and Clqb: induces expression
[4]; Xenon vs. normal air in vivo, RNA-Sequencing
  homeostatic and phagocytosis-related genes in MG-dNΦ: induces
[5]; APP/PS1 mice, cortex, compared to the control group
  % positive area stained by Clec7a: significantly decreased
[5]; APP/PS1 mice, prefrontal cortex, compared to the control group
  % cortical area of 6E10+ Abeta plaques: significant reduction
[5]; all groups of different plaque sizes
  number of plaques of different sizes: reduction in all groups
[5]; plaque size 0-100 um2
  number of plaques, plaque size 0-100 um2: reduction reached significance
[6]; APP/PS1 mice
  APOE in the plaque region: reduced
[6]; APP/PS1 mice exposed to Xenon vs. normal air for 8 weeks
  APOE phagocytosed by CD68+ cells: significant reduction
[7]; 5 exposures of 40 minutes twice a week, day 0 to day 15
  clinical signs (EAE score): delay
[7]; flow cytometry
  expression of CD44 (activation marker) in T lymphocytes: tendency to lower expression
  frequency of IFNg in T lymphocytes: higher frequency
[7]; immunohistochemistry, day 17
  frequency of clec7a+ cells in the spinal cord: decrease in the frequency
[7]; spinal cord, flow cytometry
  frequency of microglial cells positive for Clec7a: lower frequency
  frequency of microglial cells positive for Tmem119, PD1 and CD206: tended to have a higher frequency
[7]; spinal cord, immunohistochemistry, day 17
  demyelination: tendency of less demyelination
[8]
  antiapoptotic effect on neurons in AD cell models: direct antiapoptotic effect

Source: US20230117859A1, “INHALED XENON THERAPY IN NEURODEGENERATIVE DISEASE” (The Brigham and Women`s Hospital, Inc., priority 2020, published 2023)
